# Experimental data: PubChem BioAssay (NCI)
#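 Following 48 hours of exposure in 96-well plates, responses at five concentrations were used to interpolate endpoints linearly. TGI marks complete inhibition of growth.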
# Tests used:
# Assay in all cases: NCI tumour cell line growth inhibition, 48 h
# [1] = tested on: HL-60(TB) leukemia
# [2] = tested on: UO-31 renal
# [3] = tested on: EKVX NSCLC
# [4] = tested on: DMS 114 small cell lung
# [5] = tested on: ACHN renal
# [6] = tested on: LOX IMVI melanoma
# [7] = tested on: CCRF-CEM leukemia
# [8] = tested on: NCI-H522 lung
# [9] = tested on: XF 498 CNS
# [10] = tested on: RPMI-8226 leukemia
# [11] = tested on: SK-MEL-28 melanoma
# [12] = tested on: A549 NSCLC
# [13] = tested on: DLD-1 colon
# [14] = tested on: MOLT-4 leukemia
# [15] = tested on: CAKI-1 renal
# [16] = tested on: SN12C renal
# [17] = tested on: OVCAR-8 ovarian
# [18] = tested on: SW-620 colon
# [19] = tested on: M19-MEL melanoma
# [20] = tested on: U251 CNS
# [21] = tested on: SK-MEL-5 melanoma
# [22] = tested on: NCI-H460 lung
# [23] = tested on: SNB-78 CNS
# [24] = tested on: DMS 273 small cell lung
# [25] = tested on: RXF-631 renal
# [26] = tested on: TK-10 renal
# [27] = tested on: UACC-62 melanoma
# [28] = tested on: SF-268 CNS
# [29] = tested on: M14 melanoma
# [30] = tested on: 786-0 renal
# [31] = tested on: RXF 393 renal
# [32] = tested on: KM20L2 colon
# [33] = tested on: HOP-92 NSCLC
# [34] = tested on: SK-OV-3 ovarian
# [35] = tested on: SNB-19 CNS
# [36] = tested on: SF-295 CNS
# [37] = tested on: UACC-257 melanoma
# [38] = tested on: IGROV1 ovarian
# [39] = tested on: OVCAR-4 ovarian
# [40] = tested on: HOP-62 NSCLC
# [41] = tested on: KM12 colon
# [42] = tested on: K-562 leukemia
# [43] = tested on: SR leukemia
# [44] = tested on: NCI-H23 lung
# [45] = tested on: OVCAR-3 ovarian
# [46] = tested on: SNB-75 CNS
# [47] = tested on: SK-MEL-2 melanoma
# [48] = tested on: A498 renal
# [49] = tested on: SF-539 CNS
# [50] = tested on: COLO 205 colon
# [51] = tested on: HCT-116 colon
# [52] = tested on: HCT-15 colon
# [53] = tested on: HCC-2998 colon
# [54] = tested on: NCI-H226 lung
# [55] = tested on: MALME-3M melanoma
# [56] = tested on: OVCAR-5 ovarian
# [57] = tested on: LXFL 529 NSCLC
# [58] = tested on: HT29 colon
# [59] = tested on: HOP-18 NSCLC
compound,measurement,setting,value
Cc1ccc(SC(CCC(Sc2ccc(C)cc2)Sc2ccc(C)cc2)Sc2ccc(C)cc2)cc1,TGI,[1],> 100 µM
same,TGI,[2],> 100 µM
same,TGI,[3],> 100 µM
same,TGI,[4],> 100 µM
same,TGI,[5],> 100 µM
same,TGI,[6],> 100 µM
same,TGI,[7],> 100 µM
same,TGI,[8],> 100 µM
same,TGI,[9],> 100 µM
same,TGI,[10],> 100 µM
same,TGI,[11],> 100 µM
same,TGI,[12],> 100 µM
same,TGI,[13],> 100 µM
same,TGI,[14],> 100 µM
same,TGI,[15],> 100 µM
same,TGI,[16],> 100 µM
same,TGI,[17],> 100 µM
same,TGI,[18],> 100 µM
same,TGI,[19],> 100 µM
same,TGI,[20],> 100 µM
same,TGI,[21],> 100 µM
same,TGI,[22],> 100 µM
same,TGI,[23],> 100 µM
same,TGI,[24],> 100 µM
same,TGI,[25],> 100 µM
same,TGI,[26],> 100 µM
same,TGI,[27],> 100 µM
same,TGI,[28],> 100 µM
same,TGI,[29],> 100 µM
same,TGI,[30],> 100 µM
same,TGI,[31],> 100 µM
same,TGI,[32],> 100 µM
same,TGI,[33],> 100 µM
same,TGI,[34],> 100 µM
same,TGI,[35],> 100 µM
same,TGI,[36],> 100 µM
same,TGI,[37],> 100 µM
same,TGI,[38],> 100 µM
same,TGI,[39],> 100 µM
same,TGI,[40],> 100 µM
same,TGI,[41],> 100 µM
same,TGI,[42],> 100 µM
same,TGI,[43],> 100 µM
same,TGI,[44],> 100 µM
same,TGI,[45],> 100 µM
same,TGI,[46],> 100 µM
same,TGI,[47],> 100 µM
same,TGI,[48],> 100 µM
same,TGI,[49],> 100 µM
same,TGI,[50],> 100 µM
same,TGI,[51],> 100 µM
same,TGI,[52],> 100 µM
O=C(/N=C/c1c(O)c2ccccc2oc1=O)Nc1ccccc1,TGI,[1],> 100 µM
same,TGI,[2],> 100 µM
same,TGI,[3],> 100 µM
same,TGI,[4],> 100 µM
same,TGI,[5],> 100 µM
same,TGI,[6],> 100 µM
same,TGI,[7],> 100 µM
same,TGI,[8],> 100 µM
same,TGI,[9],> 100 µM
same,TGI,[53],> 100 µM
same,TGI,[10],> 100 µM
same,TGI,[11],> 100 µM
same,TGI,[12],> 100 µM
same,TGI,[54],> 100 µM
same,TGI,[55],94 µM
same,TGI,[13],> 100 µM
same,TGI,[14],> 100 µM
same,TGI,[15],55.3 µM
same,TGI,[16],> 100 µM
same,TGI,[17],> 100 µM
same,TGI,[18],> 100 µM
same,TGI,[19],> 100 µM
same,TGI,[20],> 100 µM
same,TGI,[21],> 100 µM
same,TGI,[56],> 100 µM
same,TGI,[22],> 100 µM
same,TGI,[57],> 100 µM
same,TGI,[23],> 100 µM
same,TGI,[24],> 100 µM
same,TGI,[26],> 100 µM
same,TGI,[58],> 100 µM
same,TGI,[27],> 100 µM
same,TGI,[28],> 100 µM
same,TGI,[29],> 100 µM
same,TGI,[59],> 100 µM
same,TGI,[30],> 100 µM
same,TGI,[31],91.8 µM
same,TGI,[32],> 100 µM
same,TGI,[33],> 100 µM
same,TGI,[34],> 100 µM
same,TGI,[35],> 100 µM
same,TGI,[36],> 100 µM
same,TGI,[37],> 100 µM
same,TGI,[38],> 100 µM
same,TGI,[39],> 100 µM
same,TGI,[41],> 100 µM
same,TGI,[42],> 100 µM
same,TGI,[43],> 100 µM
same,TGI,[44],> 100 µM
same,TGI,[45],> 100 µM
same,TGI,[46],83.5 µM
same,TGI,[47],80.4 µM
same,TGI,[48],> 100 µM
same,TGI,[49],> 100 µM
same,TGI,[50],> 100 µM
same,TGI,[51],> 100 µM
same,TGI,[52],> 100 µM
O=C1c2ccc(O)cc2C(=O)c2ccc(O)cc21,TGI,[1],> 100 µM
same,TGI,[2],73.2 µM
same,TGI,[3],> 100 µM
same,TGI,[4],> 100 µM
same,TGI,[5],> 100 µM
same,TGI,[6],> 100 µM
same,TGI,[7],> 100 µM
same,TGI,[8],> 100 µM
same,TGI,[9],> 100 µM
same,TGI,[53],> 100 µM
same,TGI,[10],> 100 µM
same,TGI,[11],> 100 µM
same,TGI,[12],> 100 µM
same,TGI,[55],> 100 µM
same,TGI,[13],> 100 µM
same,TGI,[14],> 100 µM
same,TGI,[15],> 100 µM
same,TGI,[16],> 100 µM
same,TGI,[17],> 100 µM
same,TGI,[18],> 100 µM
same,TGI,[19],> 100 µM
same,TGI,[20],> 100 µM
same,TGI,[21],> 100 µM
same,TGI,[56],> 100 µM
same,TGI,[22],> 100 µM
same,TGI,[57],> 100 µM
same,TGI,[23],> 100 µM
same,TGI,[24],> 100 µM
same,TGI,[25],> 100 µM
same,TGI,[26],> 100 µM
same,TGI,[58],> 100 µM
same,TGI,[27],> 100 µM
same,TGI,[28],> 100 µM
same,TGI,[29],> 100 µM
same,TGI,[30],> 100 µM
same,TGI,[31],91.8 µM
same,TGI,[33],> 100 µM
same,TGI,[34],84.8 µM
same,TGI,[35],> 100 µM
same,TGI,[36],> 100 µM
same,TGI,[37],> 100 µM
same,TGI,[38],> 100 µM
same,TGI,[39],> 100 µM
same,TGI,[40],> 100 µM
same,TGI,[41],> 100 µM
same,TGI,[42],> 100 µM
same,TGI,[44],> 100 µM
same,TGI,[45],> 100 µM
same,TGI,[46],81.5 µM
same,TGI,[47],> 100 µM
same,TGI,[48],> 100 µM
same,TGI,[49],> 100 µM
same,TGI,[50],> 100 µM
same,TGI,[51],> 100 µM
same,TGI,[52],> 100 µM
COc1cc([C@@H]2c3cc4c(cc3C(N)C3COC(=O)[C@@H]32)OCO4)cc(OC)c1O (stereo not given in full),TGI,[1],0.555 µM
same,TGI,[2],> 100 µM
same,TGI,[5],> 100 µM
same,TGI,[6],> 100 µM
same,TGI,[7],> 100 µM
same,TGI,[10],> 100 µM
same,TGI,[12],> 100 µM
same,TGI,[13],> 100 µM
same,TGI,[14],1.17 µM
same,TGI,[16],> 100 µM
same,TGI,[18],> 100 µM
same,TGI,[19],> 100 µM
same,TGI,[57],> 100 µM
same,TGI,[25],0.606 µM
same,TGI,[26],> 100 µM
same,TGI,[28],> 100 µM
same,TGI,[59],> 100 µM
same,TGI,[30],> 100 µM
same,TGI,[35],0.646 µM
same,TGI,[36],> 100 µM
same,TGI,[37],> 100 µM
same,TGI,[38],> 100 µM
same,TGI,[39],> 100 µM
same,TGI,[40],> 100 µM
same,TGI,[42],> 100 µM
same,TGI,[43],0.428 µM
same,TGI,[44],> 100 µM
same,TGI,[49],0.586 µM
same,TGI,[50],0.362 µM
same,TGI,[51],> 100 µM
same,TGI,[52],> 100 µM
